Measurements taken from ChEMBL document CHEMBL3639166, “Heteroaryloxyheterocyclyl compounds as PDE10 inhibitors” (2013).

Molecular target: T1, cAMP and cAMP-inhibited cGMP 3',5'-cyclic phosphodiesterase 10A (Rattus norvegicus, UniProt Q9QYJ6)
T1 sequence (Q9QYJ6 whole entry): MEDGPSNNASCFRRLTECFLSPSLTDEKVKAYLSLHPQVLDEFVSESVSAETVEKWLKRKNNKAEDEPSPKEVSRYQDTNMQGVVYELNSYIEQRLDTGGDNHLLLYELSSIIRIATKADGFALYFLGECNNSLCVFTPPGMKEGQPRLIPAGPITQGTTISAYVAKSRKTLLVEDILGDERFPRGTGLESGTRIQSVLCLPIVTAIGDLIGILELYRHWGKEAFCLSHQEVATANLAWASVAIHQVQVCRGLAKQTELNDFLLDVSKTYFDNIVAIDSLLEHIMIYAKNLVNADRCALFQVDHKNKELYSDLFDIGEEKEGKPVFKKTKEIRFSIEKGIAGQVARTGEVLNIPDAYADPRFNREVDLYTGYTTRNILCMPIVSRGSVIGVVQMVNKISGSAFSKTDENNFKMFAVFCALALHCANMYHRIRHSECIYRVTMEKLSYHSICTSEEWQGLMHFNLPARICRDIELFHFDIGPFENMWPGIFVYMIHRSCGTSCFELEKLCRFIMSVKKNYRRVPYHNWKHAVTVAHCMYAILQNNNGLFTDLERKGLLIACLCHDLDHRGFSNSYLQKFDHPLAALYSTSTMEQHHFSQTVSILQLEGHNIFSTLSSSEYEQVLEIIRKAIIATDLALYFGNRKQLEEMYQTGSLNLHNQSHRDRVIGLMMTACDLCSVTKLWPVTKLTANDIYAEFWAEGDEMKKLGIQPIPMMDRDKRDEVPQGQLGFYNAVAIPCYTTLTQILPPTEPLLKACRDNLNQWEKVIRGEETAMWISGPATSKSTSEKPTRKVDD
Assay: Enzyme Inhibition Assay: Enzyme activity: An IMAP TR-FRET assay was used to analyze the enzyme activity (Molecular Devices Corp., Sunnyvale, Calif).

Structure (SMILES) | IC50
OCc1cccc(-c2nccnc2OC2CN(c3ccc4ccccc4n3)C2)c1 | 0.0233 µM
Cc1ccc(-c2nccnc2OC2CN(c3ccc4ccccc4n3)C2)cc1 | 0.0987 µM
CNC(=O)c1ccc(-c2nccnc2OC2CN(c3ccc4ccccc4n3)C2)cc1 | 0.015 µM
N#Cc1ccc(-c2nccnc2OC2CN(c3ccc4ccccc4n3)C2)cc1 | 0.0394 µM
c1ccc(-c2nccnc2OC2CN(c3ccc4ccccc4n3)C2)nc1 | 1.22 µM
c1ccc2nc(N3CC(Oc4nccnc4-c4ccncc4)C3)ccc2c1 | 0.0245 µM
Cc1ncccc1-c1nccnc1OC1CN(c2ccc3ccccc3n2)C1 | 0.135 µM
Cc1cc(-c2nccnc2OC2CN(c3ccc4ccccc4n3)C2)ccn1 | 0.0127 µM
c1ccc2nc(N3CC(Oc4nccnc4-c4cccc5ncccc45)C3)ccc2c1 | 0.087 µM
Nc1ncc2cc(-c3nccnc3OC3CN(c4ccc5ccccc5n4)C3)ccc2n1 | 0.0033 µM
COC(=O)N1CCC(c2nccnc2OC2CN(c3ccc4ccccc4n3)C2)CC1 | 0.158 µM
CS(=O)(=O)N1CCC(c2nccnc2OC2CN(c3ccc4ccccc4n3)C2)CC1 | 0.208 µM
CC(=O)N1CCC(c2nc3ccccc3nc2OC2CN(c3ccc4ccccc4n3)C2)CC1 | 0.0029 µM
Cc1cnccc1-c1nccnc1OC1CN(c2ccc3ccccc3n2)C1 | 0.298 µM
Clc1cnccc1-c1nccnc1OC1CN(c2ccc3ccccc3n2)C1 | 0.155 µM
Cc1ccccc1-c1nccnc1OC1CN(c2ccc3ccccc3n2)C1 | 0.128 µM
COc1ccccc1-c1nccnc1OC1CN(c2ccc3ccccc3n2)C1 | 0.15 µM
Fc1cc(-c2nccnc2OC2CN(c3ccc4ccccc4n3)C2)ccn1 | 0.0395 µM
N#Cc1ccccc1-c1nccnc1OC1CN(c2ccc3ccccc3n2)C1 | 0.377 µM
Cc1cc(F)ccc1-c1nccnc1OC1CN(c2ccc3ccccc3n2)C1 | 0.918 µM
CN(C)C(=O)c1ccc(-c2nccnc2OC2CN(c3ccc4ccccc4n3)C2)cc1 | 0.015 µM

Structure (SMILES) | IC50
CC(=O)c1cccc(-c2nccnc2OC2CN(c3ccc4ccccc4n3)C2)c1 | 0.0112 µM
CN(C)C(=O)c1cccc(-c2nccnc2OC2CN(c3ccc4ccccc4n3)C2)c1 | 0.0228 µM
N#Cc1ccc(-c2nccnc2OC2CN(c3ccc4ccccc4n3)C2)cn1 | 0.0506 µM
Cc1cc(-c2nccnc2O[C@@H]2CCN(c3ccc4ccccc4n3)C2)ccn1 | 0.255 µM
Cc1cc(-c2nccnc2O[C@H]2CCN(c3ccc4ccccc4n3)C2)ccn1 | 0.639 µM
c1cncc(-c2nccc(OC3CN(c4ccc5ccccc5n4)C3)n2)c1 | 0.0356 µM
Nc1ccc(-c2nccc(OC3CN(c4ccc5ccccc5n4)C3)n2)cc1 | 0.11 µM
Fc1ccc(-c2nccnc2OC2CN(c3ccc4ccccc4n3)C2)cn1 | 0.0457 µM
Cc1ccncc1-c1nccnc1OC1CN(c2ccc3ccccc3n2)C1 | 0.251 µM
COc1cccc(-c2nccnc2OC2CN(c3ccc4ccccc4n3)C2)c1 | 0.019 µM
COc1cccc(-c2nccnc2OC2CN(c3ncc4ccccc4n3)C2)c1 | 0.148 µM
COc1ncccc1-c1nccnc1OC1CN(c2ncc3ccccc3n2)C1 | 0.178 µM
Cc1cccc(-c2nc3ccccc3nc2OC2CN(c3ccc4ccccc4n3)C2)c1 | 0.0535 µM
C1=C(c2nccnc2OC2CN(c3ccc4ccccc4n3)C2)CCOC1 | 0.0149 µM
c1ccc(Cc2ccc3oc(-c4nccnc4OC4CN(c5ccc6ccccc6n5)C4)cc3c2)cc1 | 0.363 µM
COc1ccc(-c2nccnc2OC2CN(c3ccc4ccccc4n3)C2)cn1 | 0.0254 µM
c1ccc(-c2ccc(-c3nccnc3OC3CN(c4ccc5ccccc5n4)C3)s2)cc1 | 0.254 µM
CC(C)Oc1cc(F)cc(-c2nccnc2OC2CN(c3ccc4ccccc4n3)C2)c1 | 0.174 µM
COc1ncc(-c2nccnc2OC2CN(c3ccc4ccccc4n3)C2)cn1 | 0.0428 µM
c1ccc2nc(N3CC(Oc4nccnc4-c4ccc(OCC5CC5)nc4)C3)ccc2c1 | 0.0502 µM
COc1cccc(-c2cnc(N3CCC(CO)CC3)nc2OC2CN(c3ccc4ccccc4n3)C2)c1 | 0.0033 µM

Structure (SMILES) | IC50
Cc1cc(-c2cnc(N3CCC(CO)CC3)nc2OC2CN(c3ccc4ccccc4n3)C2)ccn1 | 0.0003 µM
COc1ncccc1-c1cnc(N2CCC(CO)CC2)nc1OC1CN(c2ccc3ccccc3n2)C1 | 0.0006 µM
Cc1ccc(-c2cnc(N3CCC(CO)CC3)nc2OC2CN(c3ccc4ccccc4n3)C2)cn1 | 0.0002 µM
OCC1CCN(c2ncc(C3=CCOCC3)c(OC3CN(c4ccc5ccccc5n4)C3)n2)CC1 | 0.0011 µM
CC(C)(C)OC(=O)N1CC=C(c2cnc(N3CCC(CO)CC3)nc2OC2CN(c3ccc4ccccc4n3)C2)CC1 | 0.0003 µM
Cc1cc(-c2nccnc2OC2CN(C(=O)c3nc4ccccc4[nH]3)C2)ccn1 | 0.156 µM
COc1cnccc1-c1cccnc1OC1CN(C(=O)OCc2ccccc2)C1 | 7.64 µM
O=C(c1nc2ccccc2[nH]1)N1CCC(Oc2nccnc2-c2ccncc2)CC1 | 0.23 µM
O=C(c1nc2ccccc2[nH]1)N1CC(Oc2nccnc2C2=CCOCC2)C1 | 0.222 µM
CC(C)(C)OC(=O)N1CCC=C(c2nccnc2OC2CN(C(=O)c3nc4ccccc4[nH]3)C2)C1 | 0.227 µM
CC(C)(C)OC(=O)N1C=C(c2nccnc2OC2CN(C(=O)c3nc4ccccc4[nH]3)C2)CCC1 | 0.0365 µM
Cc1cccc(-c2nccnc2OC2CN(c3ccc4ccccc4n3)C2)c1 | 0.0573 µM
COc1cccc(-c2nc3ccccc3nc2OC2CN(c3ccc4ccccc4n3)C2)c1 | 0.00668 µM
COc1ncccc1-c1nc2ccccc2nc1OC1CN(c2ccc3ccccc3n2)C1 | 0.0055 µM
c1ccc(-c2nccc(OC3CN(c4ccc5ccccc5n4)C3)n2)nc1 | 0.109 µM
OCc1ccc(-c2nccc(OC3CN(c4ccc5ccccc5n4)C3)n2)cc1 | 0.00845 µM
FC1(F)CCN(c2nccnc2OC2CN(c3ccc4ccccc4n3)C2)CC1 | 0.00423 µM
FC1(F)CCN(c2nccnc2OC2CN(c3ccc4ccccc4n3)C2)C1 | 0.0953 µM
FC1(F)CCCN(c2nccnc2OC2CN(c3ccc4ccccc4n3)C2)C1 | 0.0921 µM
Fc1cnc(OC2CN(c3ccc4ccccc4n3)C2)c(N2CCC(F)(F)CC2)c1 | 0.144 µM
FC1(F)CCN(c2cccnc2OC2CN(c3ccc4ccccc4n3)C2)CC1 | 0.0359 µM

Structure (SMILES) | IC50
COCC(=O)N1CCC(c2nccnc2OC2CN(c3ccc4ccccc4n3)C2)CC1 | 0.165 µM
CC(=O)N1CCC(c2cc(C)cnc2OC2CN(c3ccc4ccccc4n3)C2)CC1 | 0.0678 µM
CC(=O)N1CCC(c2cc(F)cnc2OC2CN(c3ccc4ccccc4n3)C2)CC1 | 0.0648 µM
CC(=O)N1CCC(c2cccnc2OC2CN(c3ccc4ccccc4n3)C2)CC1 | 0.0688 µM
CC(=O)N1CC=C(c2nccnc2OC2CN(C(=O)OCc3ccccc3)C2)CC1 | 0.582 µM
CC(=O)N1CCC(c2nccnc2OC2CCN(c3ccc4ccccc4n3)CC2)CC1 | 1.64 µM
CC(=O)N1CC=C(c2nccnc2OC2CCN(C(=O)c3nc4ccccc4[nH]3)CC2)CC1 | 0.0718 µM
CC(=O)N1CC=C(c2nccnc2OC2CN(C(=O)c3nc4ccccc4[nH]3)C2)CC1 | 0.0104 µM
CC(=O)N1CCCC(c2cccnc2OC2CN(C(=O)c3ccccn3)C2)C1 (stereo unspecified) | 0.041 µM
CC(=O)N1CCCC(c2cccnc2OC2CN(C(=O)c3nc4ccccc4[nH]3)C2)C1 (stereo unspecified) | 0.00647 µM
CC(C)C(=O)N1CCCC(c2cccnc2OC2CN(C(=O)c3nc4ccccc4[nH]3)C2)C1 (stereo unspecified) | 0.0414 µM
CC(=O)N1CC=C(c2nccnc2OC2CN(C(=O)c3ccc[nH]3)C2)CC1 | 0.21 µM
CC(=O)N1CCC=C(c2nccnc2OC2CN(C(=O)c3nc4ccccc4[nH]3)C2)C1 | 0.121 µM
CC(=O)N1CCC(c2cnc(N3CCC(CO)CC3)nc2OC2CN(c3ccc4ccccc4n3)C2)CC1 | 0.00039 µM
COCC#Cc1nccnc1OC1CN(c2ccc3ccccc3n2)C1 | 0.282 µM
c1cnc(OC2CN(c3ccc4ccccc4n3)C2)c(N2CCOCC2)c1 | 0.012 µM
CC(=O)N1CCC(c2cccnc2OC2CN(C(=O)OC(C)(C)C)C2)CC1 | 10.2 µM
O=C(c1nc2ccccc2[nH]1)N1CC(Oc2ncccc2C2=CCOCC2)C1 | 0.000864 µM
